Experiment: Solubility of benzocaine in ethyl alcohol with and without menthol
Format: physicochemical
Excerpt: While not wishing to be bound to any theory, it appears that, in embodiments containing the medicament, for example benzocaine, menthol improves the clarity of the composition by increasing the solubility of medicament in the gel composition. This belief is based on the observation that the solubility of benzocaine in ethyl alcohol containing menthol is higher than the solubility of benzocaine in ethyl alcohol without menthol. It is believed that menthol can enhance the interaction between polymethacrylate, such as Eudragit™ RS, and a medicament, such as benzocaine. This belief is based on an interaction study conducted with a Differential Scanning Calorimeter (DSC). Further, while not wishing to be bound to any theory, it appears that one or both of the polymers may be forming a complex with the medicament drug in the presence of menthol and enhancing the clarity of the composition.

solubility of benzocaine in ethyl alcohol containing menthol versus without menthol: higher
Structure (SMILES): CCOC(=O)c1ccc(N)cc1 [benzocaine]
